Data taken from the supplement of paper PMC10733146.

Assays:
Assay in all cases: viability relative to DMSO control (fraction); higher = less drug effect (more viable cells)
Details in all cases: 48 h
[1] = tested on: primary AML patient cells (S055)
In short: (§1)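 Viability was measured as CellTiter-Glo luminescence relative to the median of 16 inner DMSO wells. Primary mononuclear tumour cells, fresh or cryopreserved, were Ficoll-isolated from blood or bone marrow or taken from processed lymph node. They were seeded at 4 × 10^4 cells per well into 384-well plates holding pre-plated compounds at five concentrations, one well each, and kept in RPMI-1640 with penicillin/streptomycin, L-glutamine and human serum at 37 °C and 5% CO2 for 48 h.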

[2] = tested on: primary AML patient cells (S006)
In short: as §1

[3] = tested on: primary MCL patient cells (S041)
In short: as §1

[4] = tested on: primary DLBCL patient cells (S082)
In short: as §1

[5] = tested on: primary AML patient cells (S009)
In short: as §1

[6] = tested on: primary ALL patient cells (S088)
In short: as §1

[7] = tested on: primary AML patient cells (S021)
In short: as §1

[8] = tested on: primary AML patient cells (S081)
In short: as §1

[9] = tested on: primary AML patient cells (S011)
In short: as §1

[10] = tested on: primary B-PLL patient cells (S016)
In short: as §1

[11] = tested on: primary T-PLL patient cells (S008)
In short: as §1

[12] = tested on: primary AML patient cells (S060)
In short: as §1

[13] = tested on: primary MCL patient cells (S063)
In short: as §1

[14] = tested on: primary FL patient cells (S087)
In short: as §1

CNC(=O)c1cc(Oc2ccc(NC(=O)Nc3ccc(Cl)c(C(F)(F)F)c3)cc2)ccn1 [Sorafenib]
viability ([1]; 0.024 µM): 0.971
viability ([1]; 0.12 µM): 1.04
viability ([1]; 0.6 µM): 1.02
viability ([1]; 3 µM): 1.08
viability ([1]; 15 µM): 1.04
viability ([2]; 0.024 µM): 0.709
viability ([2]; 0.12 µM): 0.508
viability ([2]; 0.6 µM): 0.413
viability ([2]; 3 µM): 0.423
viability ([2]; 15 µM): 0.378
viability ([3]; 0.024 µM): 0.981
viability ([3]; 0.12 µM): 1.01
viability ([3]; 0.6 µM): 1.04
viability ([3]; 3 µM): 1.05
viability ([3]; 15 µM): 0.95
viability ([4]; 0.024 µM): 1
viability ([4]; 0.12 µM): 1.02
viability ([4]; 0.6 µM): 1.03
viability ([4]; 3 µM): 1.18
viability ([4]; 15 µM): 1.35
viability ([5]; 0.024 µM): 0.947
viability ([5]; 0.12 µM): 0.828
viability ([5]; 0.6 µM): 0.869
viability ([5]; 3 µM): 0.985
viability ([5]; 15 µM): 0.906
viability ([6]; 0.024 µM): 0.811
viability ([6]; 0.12 µM): 0.896
viability ([6]; 0.6 µM): 0.844
viability ([6]; 3 µM): 0.996
viability ([6]; 15 µM): 1.31
viability ([7]; 0.024 µM): 0.995
viability ([7]; 0.12 µM): 1.09
viability ([7]; 0.6 µM): 1.07
viability ([7]; 3 µM): 1.12
viability ([7]; 15 µM): 0.888
viability ([8]; 0.024 µM): 0.918
viability ([8]; 0.12 µM): 0.958
viability ([8]; 0.6 µM): 1.03
viability ([8]; 3 µM): 0.99
viability ([8]; 15 µM): 1.06
viability ([9]; 0.024 µM): 0.966
viability ([9]; 0.12 µM): 1.02
viability ([9]; 0.6 µM): 0.972
viability ([9]; 3 µM): 0.875
viability ([9]; 15 µM): 0.715
viability ([10]; 0.024 µM): 0.964
viability ([10]; 0.12 µM): 1.05
viability ([10]; 0.6 µM): 1.01
viability ([10]; 3 µM): 1
viability ([10]; 15 µM): 0.978
viability ([11]; 0.024 µM): 0.955
viability ([11]; 0.12 µM): 0.997
viability ([11]; 0.6 µM): 1.02
viability ([11]; 3 µM): 0.973
viability ([11]; 15 µM): 0.948
viability ([12]; 0.024 µM): 0.963
viability ([12]; 0.12 µM): 0.951
viability ([12]; 0.6 µM): 1.02
viability ([12]; 3 µM): 1.02
viability ([12]; 15 µM): 1.09
viability ([13]; 0.024 µM): 0.98
viability ([13]; 0.12 µM): 1.02
viability ([13]; 0.6 µM): 0.973
viability ([13]; 3 µM): 1.06
viability ([13]; 15 µM): 1.02
viability ([14]; 0.024 µM): 1.01
viability ([14]; 0.12 µM): 1.04
viability ([14]; 0.6 µM): 1.08
viability ([14]; 3 µM): 1.06
viability ([14]; 15 µM): 1.04

Nc1nc(=S)c2[nH]cnc2[nH]1 [Thioguanin]
viability ([1]; 0.024 µM): 0.964
viability ([1]; 0.12 µM): 0.867
viability ([1]; 0.6 µM): 0.49
viability ([1]; 3 µM): 0.19
viability ([1]; 15 µM): 0.114
viability ([2]; 0.024 µM): 1.07
viability ([2]; 0.12 µM): 0.996
viability ([2]; 0.6 µM): 0.57
viability ([2]; 3 µM): 0.202
viability ([2]; 15 µM): 0.0984
viability ([3]; 0.024 µM): 1.02
viability ([3]; 0.12 µM): 0.879
viability ([3]; 0.6 µM): 0.681
viability ([3]; 3 µM): 0.515
viability ([3]; 15 µM): 0.388
viability ([4]; 0.024 µM): 1.01
viability ([4]; 0.12 µM): 0.972
viability ([4]; 0.6 µM): 0.844
viability ([4]; 3 µM): 0.602
viability ([4]; 15 µM): 0.457
viability ([5]; 0.024 µM): 1.14
viability ([5]; 0.12 µM): 1.09
viability ([5]; 0.6 µM): 1.07
viability ([5]; 3 µM): 0.696
viability ([5]; 15 µM): 0.489
viability ([6]; 0.024 µM): 1.03
viability ([6]; 0.12 µM): 1.08
viability ([6]; 0.6 µM): 0.904
viability ([6]; 3 µM): 0.565
viability ([6]; 15 µM): 0.281
viability ([7]; 0.024 µM): 1.11
viability ([7]; 0.12 µM): 0.984
viability ([7]; 0.6 µM): 0.918
viability ([7]; 3 µM): 0.672
viability ([7]; 15 µM): 0.435
viability ([8]; 0.024 µM): 1.09
viability ([8]; 0.12 µM): 0.899
viability ([8]; 0.6 µM): 0.621
viability ([8]; 3 µM): 0.465
viability ([8]; 15 µM): 0.319
viability ([9]; 0.024 µM): 1.02
viability ([9]; 0.12 µM): 0.977
viability ([9]; 0.6 µM): 0.658
viability ([9]; 3 µM): 0.339
viability ([9]; 15 µM): 0.239
viability ([10]; 0.024 µM): 0.919
viability ([10]; 0.12 µM): 0.71
viability ([10]; 0.6 µM): 0.403
viability ([10]; 3 µM): 0.23
viability ([10]; 15 µM): 0.212
viability ([11]; 0.024 µM): 1.02
viability ([11]; 0.12 µM): 0.986
viability ([11]; 0.6 µM): 0.957
viability ([11]; 3 µM): 0.9
viability ([11]; 15 µM): 0.629
viability ([12]; 0.024 µM): 1.03
viability ([12]; 0.12 µM): 0.969
viability ([12]; 0.6 µM): 0.697
viability ([12]; 3 µM): 0.643
viability ([12]; 15 µM): 0.424
viability ([13]; 0.024 µM): 1.03
viability ([13]; 0.12 µM): 0.867
viability ([13]; 0.6 µM): 0.495
viability ([13]; 3 µM): 0.192
viability ([13]; 15 µM): 0.064
viability ([14]; 0.024 µM): 0.998
viability ([14]; 0.12 µM): 0.952
viability ([14]; 0.6 µM): 0.804
viability ([14]; 3 µM): 0.688
viability ([14]; 15 µM): 0.645
